Measurements as given in ChEMBL document CHEMBL1681651, “A broad spectrum anticancer nucleoside with selective toxicity against human colon cells in vitro” (2011).

Assays:
Type in all cases: functional
SK-OV-3 = test: Growth inhibition of human SKOV3 cells assessed as cell growth at 1 uM after 48 hrs by SRB assay; details: SK-OV-3, 48 h, read-out: Activity
CAKI-1 = test: Growth inhibition of human Caki1 cells assessed as cell growth at 1 uM after 48 hrs by SRB assay; details: CAKI-1, 48 h, read-out: Activity
NCI/ADR-RES [1] = test: Growth inhibition of human NCI/ADR-RES cells assessed as cell growth at 1 uM after 48 hrs by SRB assay; details: read-out: Activity
MDA-MB-435 [2] = test: Growth inhibition of human MDA-MB-435 cells assessed as cell growth at 1 uM after 48 hrs by SRB assay; details: MDA-MB-435, 48 h, read-out: Activity
[3] = Growth inhibition of human […] cells assessed as cell growth at 10 uM after 48 hrs by SRB assay; details: read-out: Activity
HCT-116 = test: Growth inhibition of human HCT116 cells assessed as cell growth at 10 uM after 48 hrs by SRB assay; details: HCT-116, 48 h, read-out: Activity
SF-268 = test: Growth inhibition of human SF268 cells assessed as cell growth at 10 uM after 48 hrs by SRB assay; details: SF-268, 48 h, read-out: Activity
LOX IMVI = test: Growth inhibition of human LOXIMVI cells after 48 hrs by […] growth inhibition assay
SF-539 = test: Growth inhibition of human SF539 cells after 48 hrs by […] growth inhibition assay; details: SF-539, 48 h
A498 [4] = test: Growth inhibition of human A498 cells after 48 hrs by […] growth inhibition assay; details: A498, 48 h
T47D = test: Growth inhibition of human T47D cells after 48 hrs by […] growth inhibition assay
CCRF-CEM [5] = test: Growth inhibition of human CCRF-CEM cells assessed as cell growth at 0.1 uM after 48 hrs by SRB assay; details: read-out: Activity
NCI-H226 = test: Growth inhibition of human NCI-H226 cells assessed as cell growth at 0.1 uM after 48 hrs by SRB assay; details: NCI-H226, 48 h, read-out: Activity
NCI-H460 [6] = test: Growth inhibition of human NCI-H460 cells assessed as cell growth at 0.1 uM after 48 hrs by SRB assay; details: NCI-H460, 48 h, read-out: Activity
SK-MEL-2 = test: Growth inhibition of human SK-MEL-2 cells assessed as cell growth at 0.1 uM after 48 hrs by SRB assay; details: SK-MEL-2, 48 h, read-out: Activity
IGROV-1 = test: Growth inhibition of human IGROV1 cells assessed as cell growth at 0.1 uM after 48 hrs by SRB assay; details: IGROV-1, 48 h, read-out: Activity
A498 [7] = test: Growth inhibition of human A498 cells assessed as cell growth at 0.1 uM after 48 hrs by SRB assay; details: A498, 48 h, read-out: Activity
ACHN = test: Growth inhibition of human ACHN cells assessed as cell growth at 0.1 uM after 48 hrs by SRB assay; details: read-out: Activity
OVCAR-8 = test: Growth inhibition of human OVCAR8 cells assessed as cell growth at 10 uM after 48 hrs by SRB assay; details: OVCAR-8, 48 h, read-out: Activity
A498 [8] = test: Growth inhibition of human A498 cells assessed as cell growth at 10 uM after 48 hrs by SRB assay; details: A498, 48 h, read-out: Activity
TK-10 = test: Growth inhibition of human TK10 cells assessed as cell growth at 10 uM after 48 hrs by SRB assay; details: TK-10, 48 h, read-out: Activity
DU-145 = test: Growth inhibition of human DU145 cells assessed as cell growth at 10 uM after 48 hrs by SRB assay; details: DU-145, 48 h, read-out: Activity
NCI/ADR-RES [9] = test: Growth inhibition of human NCI/ADR-RES cells assessed as cell growth at 10 uM after 48 hrs by SRB assay; details: read-out: Activity
[10] = Growth inhibition of human […] cells assessed as cell growth at 100 uM after 48 hrs by SRB assay; details: read-out: Activity
A549 = test: Growth inhibition of human A549 cells assessed as cell growth at 100 uM after 48 hrs by SRB assay; details: A549, 48 h, read-out: Activity
NCI-H460 [11] = test: Growth inhibition of human NCI-H460 cells assessed as cell growth at 100 uM after 48 hrs by SRB assay; details: NCI-H460, 48 h, read-out: Activity
786-0 = test: Growth inhibition of human 786-0 cells assessed as cell growth at 100 uM after 48 hrs by SRB assay; details: 786-0, 48 h, read-out: Activity
NCI-H522 = test: Growth inhibition of human NCI-H522 cells assessed as cell growth at 1 mM after 48 hrs by SRB assay; details: NCI-H522, 48 h, read-out: Activity
COLO 205 = test: Growth inhibition of human COLO205 cells assessed as cell growth at 1 mM after 48 hrs by SRB assay; details: COLO 205, 48 h, read-out: Activity
HCT-15 = test: Growth inhibition of human HCT15 cells assessed as cell growth at 1 mM after 48 hrs by SRB assay; details: HCT-15, 48 h, read-out: Activity
OVCAR-3 = test: Growth inhibition of human OVCAR3 cells assessed as cell growth at 1 mM after 48 hrs by SRB assay; details: OVCAR-3, 48 h, read-out: Activity
MDA-MB-435 [12] = test: Growth inhibition of human MDA-MB-435 cells assessed as cell growth at 1 mM after 48 hrs by SRB assay; details: MDA-MB-435, 48 h, read-out: Activity
CCRF-CEM [13] = test: Growth inhibition of human CCRF-CEM cells assessed as cell growth at 1 uM after 48 hrs by SRB assay; details: read-out: Activity
Malme-3M = test: Growth inhibition of human MALME-3M cells assessed as cell growth at 1 uM after 48 hrs by SRB assay; details: read-out: Activity
OVCAR-5 = test: Growth inhibition of human OVCAR5 cells assessed as cell growth at 1 uM after 48 hrs by SRB assay; details: OVCAR-5, 48 h, read-out: Activity
[14] = read-out: LC50 (the source's name)
[15] = read-out: pLC50 (the source's name) (converted)

Compound: CCOC(=O)C[C@H]1[C@@H](O[Si](C)(C)C(C)(C)C)[C@H](n2cnc3c(NC(=O)Nc4ccccc4)ncnc32)O[C@@H]1CNC(=O)NC
- growth at 1 µM (SK-OV-3): 96%
- growth at 1 µM (CAKI-1): 95%
- growth at 1 µM (NCI/ADR-RES [1]): 107%
- growth at 1 µM (MDA-MB-435 [2]): 92%
- growth at 10 µM [3]: 53%
- growth at 10 µM (HCT-116): 78%
- growth at 10 µM (SF-268): 93%
- GI50 (LOX IMVI; read-out: GI50): 5.46 µM
- CC50 (LOX IMVI; [14]): > 100 µM
- TGI (LOX IMVI; read-out: TGI): > 100 µM
- GI50 (LOX IMVI; read-out: pGI50 (converted)): 5.5 µM
- CC50 (LOX IMVI; [15]): > 100 µM
- TGI (LOX IMVI; read-out: pTGI (converted)): > 100 µM
- GI50 (SF-539; read-out: GI50): 5.19 µM
- CC50 (SF-539; [14]): > 100 µM
- TGI (SF-539; read-out: TGI): > 100 µM
- GI50 (SF-539; read-out: pGI50 (converted)): 5.25 µM
- CC50 (SF-539; [15]): > 100 µM
- TGI (SF-539; read-out: pTGI (converted)): > 100 µM
- GI50 (A498 [4]; read-out: GI50): 3.34 µM
- CC50 (A498 [4]; [14]): > 100 µM
- TGI (A498 [4]; read-out: TGI): 17.1 µM
- GI50 (A498 [4]; read-out: pGI50 (converted)): 3.31 µM
- CC50 (A498 [4]; [15]): > 100 µM
- TGI (A498 [4]; read-out: pTGI (converted)): 17 µM
- GI50 (T47D; read-out: GI50): 2.55 µM
- CC50 (T47D; [14]): > 100 µM
- TGI (T47D; read-out: TGI): > 100 µM
- GI50 (T47D; read-out: pGI50 (converted)): 2.57 µM
- CC50 (T47D; [15]): > 100 µM
- TGI (T47D; read-out: pTGI (converted)): > 100 µM
- growth at 0.1 µM (CCRF-CEM [5]): 96%
- growth at 0.1 µM (NCI-H226): 101%
- growth at 0.1 µM (NCI-H460 [6]): 102%
- growth at 0.1 µM (SK-MEL-2): 102%
- growth at 0.1 µM (IGROV-1): 94%
- growth at 0.1 µM (A498 [7]): 95%
- growth at 0.1 µM (ACHN): 107%
- growth at 10 µM (OVCAR-8): 98%
- growth at 10 µM (A498 [8]): 91%
- growth at 10 µM (TK-10): 105%
- growth at 10 µM (DU-145): 110%
- growth at 10 µM (NCI/ADR-RES [9]): 104%
- growth at 100 µM [10]: -27%
- growth at 100 µM (A549): 23%
- growth at 100 µM (NCI-H460 [11]): 32%
- growth at 100 µM (786-0): -34%
- growth at 1000 µM (NCI-H522): -2%
- growth at 1000 µM (COLO 205): 3%
- growth at 1000 µM (HCT-15): 43%
- growth at 1000 µM (OVCAR-3): -53%
- growth at 1000 µM (MDA-MB-435 [12]): 8%
- growth at 1 µM (CCRF-CEM [13]): 100%
- growth at 1 µM (Malme-3M): 95%
- growth at 1 µM (OVCAR-5): 103%
